Test results from patent publication US12390460B2, “Treatment for obesity” (1GLOBE BIOMEDICAL CO., LTD., priority 2018, dated 2025).

How the values were obtained:
[1] = system: hypothalamic molecular mediators of hunger and satiety signaling (AgRP, NPY, POMC); assay: Quantitative real-time PCR of hypothalamic hunger and satiety genes; format: in vivo; settings: HFD-fed mice, FIG. 2B
Description: Referring now to FIG. 2B, hypothalamic molecular mediators of hunger and satiety signaling in hypothalamus were analyzed using quantitative real-time PCR with commercially available probes (Thermo Fisher Scientific Inc., Waltham, MA). AgRP and NPY are hunger-inducing signals, while POMC is powerful satiety-inducing signal in the hypothalamus. […] This was in agreement with the food intake information that we collected over the course of the experiment. […] Therefore, it was concluded that the expression levels of hypothalamic hunger or satiety genes cannot explain the marked weight loss of the Compound-14-3-treated mice on HFD and that decrease in satiety was secondary to prolonged negative energy balance in the same group.

[2] = system: human HepG2 liver cells; assay: Intracellular triglyceride content in HepG2 cells with palmitoleic acid (biochemical kit); format: cell-based; settings: HepG2, 1.6 mM palmitoleic acid, 48 hours, 0.1 μM compound, vs DMSO; FIG. 10A
Description: A series of in vitro experiments were first carried out with various human hepatocyte cultures. For example, human HepG2 liver cells were incubated with 1.6 mM palmitoleic acid in EMEM medium for 48 hours in the presence of 0.1 μM Compound 14-3 or control vehicle, DMSO. After 48 hours, cells were collected and the intracellular triglyceride content was measured by a biochemical kit (Biovision, Mountain View, CA) as described in Derdak et al. J Hepatol. 2013; 58(4):785-91.

[3] = Intraperitoneal insulin tolerance test (ITT); format: in vivo; settings: HFD-fed mice, 5th week of treatment, vs vehicle
Description: (§1) The described beneficial changes in body composition improved all aspects of the metabolic syndrome, including the underlying insulin resistance. Therefore, to fully characterize this animal model, we also assessed insulin signaling on live animals on the 5th week of Compound 14-3-treatment by conducting oral glucose tolerance test (OGTT, FIGS. 9A-C) and intraperitoneal insulin tolerance test (ITT, FIGS. 9D-E).
Both the OGTT and ITT tests were carried out on mice that have been starved for 6 hours before the procedure to eliminate the effect of the last meal on the blood glucose level. In both tests, we measured fasting glucose levels 30 min before the start of the assay to define baseline conditions. In the OGTT assay, the mice had been gavaged with 2 g/kg glucose, dissolved in water. After administration of the glucose, blood glucose level was measured via tail vein nicking using a commercially available glucometer. […] Additionally, the blood glucose level measured at 120 min after gavage was used to describe the overall glucose tolerance of the mice (FIG. 9C).
In the ITT test, we have intraperitoneally administered […] human recombinant insulin (Humulin N, Eli Lilly, Cambridge, MA) at the start of the assay and blood glucose was similarly measured for 120 min. […]

[4] = system: TGF-β; assay: TGF-β gene expression in eWAT; format: in vivo; settings: HFD-fed mice; FIG. 4C
Text: Since obesity has been linked to low-grade inflammation in the adipose tissue, we consequently observed increased TGF-β expression in the epididymal fat pads of the HFD-fed mice.

[5] = system: FGF21; assay: Serum FGF21 (ELISA) and FGF21 gene expression; format: in vivo; settings: HFD-fed mice
Text: Many of the beneficial metabolic effect are linked to FGF21, and FGF21 itself may further enhance fatty acid oxidation (Xu J, et al. Diabetes (2009) 58(1):250-259; Li H, et al. Diabetes (2012) 61(4):797-806). We, therefore, also measured serum levels of FGF21 using a commercially available ELISA kit. […] Accordingly, in an aspect of the invention, Compound 14-3 treatment is utilized to increase fatty acid oxidation, resulting in decreased fat content in iWAT and eWAT, and decreased body weight in a subject.

[6] = system: genes involved in lipid transport and degradation, beta-oxidation, de novo lipogenesis, and insulin sensitivity (RORA, ACADM, ACOX1, MLYCD, PEPCK); assay: Gene expression in visceral fat (eWAT); format: in vivo; settings: HFD-fed mice
Text: To get a more detailed insight into the metabolic changes caused by the Compound 14-3 treatment in the visceral fat (eWAT), the expression of genes involved in lipid transport and degradation, beta-oxidation, de novo lipogenesis, and insulin sensitivity were examined.
Acyl-Coenzyme A dehydrogenase, C-4 to C-12 straight chain (ACADM, FIG. 6B) is known to be important for the degradation of medium chain fatty acids.
Similarly, malonyl CoA decarboxylase (MLYCD, FIG. 6D) has been induced by the Compound 14-3 treatment. This event is linked to decreased malonyl CoA synthesis and the suppression of de novo lipogenesis by Compound 14-3.

[7] = system: liver; assay: Liver size, appearance and liver/body weight ratio (NAFLD) in HFD-fed mice; format: in vivo
Text: The enlarged liver appeared pale yellow consistent with fatty metamorphosis. […] The beneficial effect on liver size and appearance was consistent as a part of overall improvement in metabolic properties after Compound 14-3 treatment.

[8] = Oral glucose tolerance test (OGTT); format: in vivo; settings: HFD-fed mice, 5th week of treatment, vs vehicle
Description: as §1
Both the OGTT and ITT tests were carried out on mice that have been starved for 6 hours before the procedure to eliminate the effect of the last meal on the blood glucose level. In both tests, we measured fasting glucose levels 30 min before the start of the assay to define baseline conditions. In the OGTT assay, the mice had been gavaged with 2 g/kg glucose, dissolved in water. After administration of the glucose, blood glucose level was measured via tail vein nicking using a commercially available glucometer. The obtained data was plotted against time (FIG. 9A) and the area under curve (AUC) calculations were carried out (FIG. 9B). Additionally, the blood glucose level measured at 120 min after gavage was used to describe the overall glucose tolerance of the mice (FIG. 9C).

[9] = system: UCP1 and DIO2 in brown adipose tissue (BAT); assay: Quantitative real-time PCR of markers of thermogenic brown adipose tissue activation; format: in vivo; settings: HFD-fed mice, vs vehicle; FIG. 2C
Text: Finally, the recruitment of brown adipose tissue (BAT) was examined. BAT is a well-know site for dissipating excess energy to prevent weight gain by inducing thermogenesis. Importantly, the expression levels of the two investigated markers of thermogenic BAT activation—UCP1 and DIO2—were not different in the two HFD-fed groups when measured by quantitative real-time PCR (FIG. 2C), indicating similar levels of BAT activation in response to HFD. These findings led us to conclude that for the weigh loss seen in the Compound 14-3-treated HFD-fed mice, other mechanisms are probably responsible.

[10] = system: white adipose tissue adipocytes; assay: H & E staining and morphometry of eWAT and iWAT adipocytes; format: in vivo; settings: HFD-fed mice

**Q.** With `CCN(CC)CCNC(=O)c1c(C)[nH]c(/C=C2\C(=O)Nc3ccc(-c4csc(-c5ccccc5)n4)cc32)c1C` [Compound 14-3] as the molecule, how does the “satiety-inducing POMC expression in hypothalamus” value ([1]; vs corresponding control group) read?
**A.** significant decrease

**Q.** What about the “expression of appetite-inducing genes (AgRP, NPY) in hypothalamus” value ([1]; vs vehicle) of the same molecule?
**A.** no significant difference

**Q.** And the “palmitoleic acid-induced increase of intracellular triglyceride content” value [2]?
**A.** markedly suppressed

**Q.** And the “blood glucose levels in response to insulin (ITT)” value ([3]; i.p. insulin, 120 min, FIG. 9D)?
**A.** steeper drop

**Q.** And the “area under curve during ITT” value ([3]; FIG. 9E)?
**A.** smaller

**Q.** And the “TGF-β abundance (gene expression) in eWAT” value [4]?
**A.** decreased

**Q.** And the “serum FGF21 levels” value ([5]; ELISA, FIG. 7A)?
**A.** increased

**Q.** And the FGF21 gene expression ([5]; FIG. 7B)?
**A.** increased

**Q.** What about the “RORA expression in eWAT” value ([6]; FIG. 6A) of the same molecule?
**A.** significantly increased

**Q.** And the “ACADM gene expression in eWAT” value ([6]; FIG. 6B)?
**A.** Increased

**Q.** And the “ACOX1 expression in eWAT” value ([6]; FIG. 6C)?
**A.** increased

**Q.** What about the “MLYCD expression in eWAT” value ([6]; FIG. 6D) of the same molecule?
**A.** induced

**Q.** And the “PEPCK gene expression in eWAT” value ([6]; FIG. 6E)?
**A.** comparable to that of the control-fed mice

**Q.** What about the NAFLD ([7]; FIG. 8A) of the same molecule?
**A.** marked improvement

**Q.** And the “size of the liver” value ([7]; FIG. 8A)?
**A.** markedly decreased

**Q.** What about the liver/body weight ratio ([7]; FIG. 8B) of the same molecule?
**A.** lower

**Q.** And the “glucose tolerance (OGTT)” value ([8]; 6 h starved, 2 g/kg glucose gavage, FIG. 9A)?
**A.** markedly improved

**Q.** What about the “area under curve during OGTT” value ([8]; FIG. 9B) of the same molecule?
**A.** smaller

**Q.** What about the “blood glucose level at 120 min during OGTT” value ([8]; FIG. 9C) of the same molecule?
**A.** decreased

**Q.** What about the “DIO2 expression level in BAT” value [9] of the same molecule?
**A.** not different

**Q.** And the “UCP1 expression level in BAT” value [9]?
**A.** not different

**Q.** What about the “size of eWAT adipocytes” value ([10]; H & E staining of eWAT, FIG. 4A-4B) of the same molecule?
**A.** decrease in the size of adipocytes

**Q.** And the “size of iWAT adipocytes” value ([10]; H & E staining of iWAT, morphometry, FIG. 5A-5B)?
**A.** decrease in size of adipocytes
